We go through 6 compounds from patent US5254554A, “3-hydroxy-substituted-1-phenyl-1,4-dihydro-4-oxopyridazines and derivatives, and use” (Pierre Fabre Medicament, priority 1991, dated 1993).

Each structure is given as a SMILES string.

For orientation: IC50 means the point on the concentration scale where inhibition reaches its midpoint. High values mean weaker potency in that assay, low ones greater potency in that assay.

The nature of experiment [1]: Anxiolytic activity, X-labyrinth test (elevated plus maze). The format is in vivo. The settings on record: 30 mg/kg per os. As to the method: (§1) Results obtained on the products of the present invention are presented in the following and are expressed in percentage of increase by reference to an untreated control, with the product being administered per os at a dose of 30 mg/kg.

Experiment [2] is described as follows: Anxiolytic activity, Vogel test. The format is in vivo. The settings on record: 30 mg/kg per os. As to the method:
as §1

The target of another experiment is T1, Lipoxygenase (Rattus norvegicus, UniProt P12527).
T1 construct: suspensions of polymorphonuclear peritonea of rates stimulated by means of the Ionophore A 23 187; endogenous in cells; host or cells: rat peritoneal polymorphonuclear cells
T1 sequence (P12527 1-673): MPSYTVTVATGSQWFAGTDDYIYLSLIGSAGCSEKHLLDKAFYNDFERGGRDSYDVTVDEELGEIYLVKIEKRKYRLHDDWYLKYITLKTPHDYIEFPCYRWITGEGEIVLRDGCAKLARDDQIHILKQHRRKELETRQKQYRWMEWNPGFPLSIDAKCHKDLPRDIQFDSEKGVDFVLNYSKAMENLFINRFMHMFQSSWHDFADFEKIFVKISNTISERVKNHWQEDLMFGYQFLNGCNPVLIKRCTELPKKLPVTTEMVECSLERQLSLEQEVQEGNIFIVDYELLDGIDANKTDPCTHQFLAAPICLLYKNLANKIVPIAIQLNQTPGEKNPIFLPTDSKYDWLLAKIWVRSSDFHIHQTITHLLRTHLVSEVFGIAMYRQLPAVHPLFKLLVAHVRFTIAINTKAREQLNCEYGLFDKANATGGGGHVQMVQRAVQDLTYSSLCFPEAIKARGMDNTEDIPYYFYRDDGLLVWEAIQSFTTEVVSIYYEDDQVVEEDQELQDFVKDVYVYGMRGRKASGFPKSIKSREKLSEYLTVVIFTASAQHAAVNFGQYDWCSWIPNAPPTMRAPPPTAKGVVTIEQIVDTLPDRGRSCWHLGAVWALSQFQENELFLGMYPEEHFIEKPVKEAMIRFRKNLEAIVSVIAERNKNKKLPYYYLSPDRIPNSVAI
The experiment can be described thus: Inhibition of Lipoxygenase: inhibition of leukotriene B4 production by polymorphonuclear cells stimulated by Ionophore A 23 187. It counts as cell-based. The settings on record: polymorphonuclear peritoneal cell suspensions.

Regarding `COc1nn(-c2cccc(C(F)(F)F)c2)c(C)cc1=O` [Compound 2, 1-Metatrifluoromethylphenyl-1,4-dihydro-3-methoxy-4-oxo-6-methylpyridazine], the “X-labyrinth test: percentage of increase by reference to an untreated control” value (shortened to “X-labyrinth test: percentage of increase”) in experiment [1] is reported as 95%. Further, the “Vogel test: percentage of increase by reference to an untreated control” value (“Vogel test: percentage of increase” below) in experiment [2] was found to be 95%.

Regarding `C=CCOc1nn(-c2cccc(C(F)(F)F)c2)c(C)cc1=O` [Compound 5, 1-Metatrifluoromethylphenyl-1,4-dihydro-3-allyloxy-4-oxo-6-methylpyridazine], in experiment [2], the “Vogel test: percentage of increase” value is 48%. Consider `Cc1cc(=O)c(OCc2ccccc2)nn1-c1cccc(C(F)(F)F)c1` [Compound 6, 1-Metatrifluoromethylphenyl-1,4-dihydro-3-benzyloxy-4-oxo-6-methylpyridazine], for which, in experiment [1], the “X-labyrinth test: percentage of increase” value amounted to 18%. The compound further had an IC50 against Lipoxygenase of 1250 nM. Also, the “Vogel test: percentage of increase” value in experiment [2] was 98%. In the case of `COc1nn(-c2cccc(C(F)(F)F)c2)ccc1=O` [Compound 9, 1-Metatrifluoromethylphenyl-1,4-dihydro-3-methoxy-4-oxopyridazine], the “X-labyrinth test: percentage of increase” value in experiment [1] is recorded as 165%. The “Vogel test: percentage of increase” value in experiment [2] stood at 52%. Consider `O=c1ccn(-c2cccc(C(F)(F)F)c2)nc1OCc1ccccc1` [Compound 10, 1-Metatrifluoromethylphenyl-1,4-dihydro-3-benzyloxy-4-oxopyridazine], for which the IC50 on Lipoxygenase was 25000 nM. For the same compound, in experiment [2], the “Vogel test: percentage of increase” value is 38%. At Lipoxygenase, `Cc1cc(=O)c(OCc2ccc3ccccc3n2)nn1-c1cccc(C(F)(F)F)c1` [Compound 11, 1-Metatrifluoromethylphenyl-1,4-dihydro-3-(2-quinolylmethoxy)-4-oxo-6-methylpyridazine] came in with an IC50 of 1100 nM.
